# From patent US8486962B2, “Antifungal agents” (F2G Ltd., priority 2005, dated 2013)
# Read-outs that look alike come from different tables or passages of the source.
# Legend:
# Aspergillus niger = test: MIC, YAG medium, Aspergillus niger; format: cell-based; conditions: for MIC: Aspergillus niger
# Procedure, shortened: (§1)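 OD at 485 nm versus drug-free control defines MIC (mg/L): >80% inhibition for Candida albicans in RPMI/2% glucose/MOPS pH7.0 after 24-48 hrs at 35° C, >70% for Aspergillus strains in YAG medium after 24 hrs at 35° C. Spore inocula 1-2×10^4 cfu/ml; yeast 1-2×10^3 cfu/ml.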
# Aspergillus terreus = test: MIC, YAG medium, Aspergillus terreus; format: cell-based; conditions: for MIC: Aspergillus terreus
# Procedure, shortened: as §1
# [1] = tested on: Aspergillus fumigatus AF210; test: MIC, YAG medium, Aspergillus fumigatus AF210; format: cell-based; conditions: for MIC: Aspergillus fumigatus
# Procedure, shortened: as §1
# Aspergillus flavus = test: MIC, YAG medium, Aspergillus flavus; format: cell-based; conditions: for MIC: Aspergillus flavus
# Procedure, shortened: as §1
# [2] = tested on: Aspergillus fumigatus AF293; test: MIC, YAG medium, Aspergillus fumigatus AF293; format: cell-based; conditions: for MIC: Aspergillus fumigatus
# Procedure, shortened: as §1
# A Terreus 49 = test: MIC, YAG medium, A Terreus 49; format: cell-based, Aspergillus terreus; conditions: for MIC: Aspergillus terreus, read-out: MIC A Terreus 49
# Experimental: Measurement of Minimum Inhibitory Concentrations (MICs)
# Between 1 and 5 mgs of compound were accurately weighed out into a sterile Eppendorf tube. The compound was dissolved in DMSO to give a solution containing 5 mg/ml. Tubes were stored at −20° C. until required.
# On the day of testing thawed solutions were vortex mixed to ensure homogeneity. 30 μl of solution was removed and added to 570 μl of sterile water in a separate sterile Eppendorf. The thoroughly mixed solution was used to prepare a series of doubling dilutions in water, in a deep well plate. Eleven replicate plates were prepared using a Minitrak by aspirating 20 μl from each well into eleven clear polystyrene 96 well plates.
# Spores of Aspergillus spp (Aspergillus fumigatus, Aspergillus terreus, Aspergillus niger and Aspergillus flavus) were harvested from cultures grown on Sabarauds agar for 5 days, and resuspended in PBS/Tween 80 to approx 1×10^7 cfu/ml Other filamentous fungi (Fusarium solani, Scedosporium spp., Trichophyton spp., Absidia corymbifera), were grown on Sabarauds agar for 2-10 days and spores/hyphae resuspended in PBS/Tween to give approx 1×10^7 cfU/ml. Candida species (Candida albicans, Candida glabrata, Candida krusei, Candida parapsilosis and Candida tropicalis) were grown on Sabarauds agar, cells were harvested from the agar using a sterile loop and resuspended in PBS/Tween 80 to approx 1×10^6 cfu/ml. Each organism suspension was diluted in RPMI medium, containing 2% glucose and 0.135M MOPS buffer (pH7.0) to 2×10^4 cfu/ml for Aspergillus spp and other filamentous fungi and 2×10^3 cfu/ml for yeast. 80 μl of an organism suspension was added to each well of the plate containing drug dilutions.
# This produced MIC plates with a drug range 50-0.05 mg/L and organism inocula of 1-2×10^4 cfu/ml for Aspergillus spp and other filamentous fungi and 1-2×10^3 cfu/ml for yeasts. All plates were incubated for 24-48 hrs at 35° C. Growth was assessed by monitoring the optical density at 485 nm for each well. The MIC of a compound is the lowest drug concentration that inhibits growth of an organism by >80% compared with a drug free control. MICs are recorded as mg/L. Other growth media can be used for susceptibility testing, and the activity of the described compounds can also be assessed in a medium comprising, 1% glucose, 1% ammonium chloride and 0.5% yeast extract (YAG medium). To perform MIC tests in this medium, dilutions of compounds are prepared in microtitre plates as described above. Fungal strains to be tested are grown and harvested in an identical manner to that described above, each organism suspension is then diluted in YAG medium to 2×10^4 cfu/ml for Aspergillus spp and other filamentous fungi and 2×10^3 cfu/ml for yeast. 80 μl of an organism suspension was added to each well of the plate containing drug dilutions. This produced MIC plates with a drug range 50-0.05 mg/L and organism inocula of 1-2×10^4 cfu/ml for Aspergillus spp and other filamentous fungi and 1-2×10^3 cfu/ml for yeasts. All plates were incubated for 24 hrs at 35° C. Growth was assessed by monitoring the optical density at 485 nm for each well. The MIC of a compound is the lowest drug concentration that inhibits growth of an organism by >70% compared with a drug free control. MICs are recorded as mg/L. In cases where the MIC of an organism is […]0.05 mg/L the MIC is repeated using a concentration range of 0.5-0.0005 mg/L. MIC tests in YAG medium have more clear-cut endpoints and have slightly lower MICS than those performed in RPMI medium.
# The following organisms were tested: Aspergillus fumigatus AF293 and Aspergillus fumigatus AF210, Aspergillus niger, Aspergillus terreus, Aspergillus favus, Candida albicans, Candida krusei, Candida tropicalis, Candida glabrata, Candida parapsilosis, Trichophyton rubrum, Trichophyton mentagrophytes, Scedosporium prolificans, Scedosporium apiospermum, Absidia corymbifera, Fusarium solani.
# [3] = YAG medium, read-out: MIC A Niger 1
# [4] = YAG medium, read-out: MIC A Terreus 4
# [5] = AF210, YAG medium, read-out: MIC A Fum. 210
# [6] = YAG medium, read-out: MIC A Flavus 01
# [7] = AF293, YAG medium, read-out: MIC A Fum. 293
SMILES,MIC (Aspergillus niger; [3]) [µg/mL],MIC (Aspergillus terreus; [4]) [µg/mL],"MIC [1, 5] [µg/mL]",MIC (Aspergillus flavus; [6]) [µg/mL],"MIC [2, 7] [µg/mL]",MIC (A Terreus 49; YAG medium) [µg/mL],further results
"COc1ccc(NC(=O)C(=NOCCN(C)C)c2c(-c3ccccc3)cc3ccccn23)cc1 (mixture of isomers) [Example 295, 2-[(E/Z)-2-Dimethylamino-ethoxyimino]-N-(4-methoxy-phenyl)-2-(2-phenyl-indolizin-3-yl)-acetamide]",–,–,–,–,–,–,MIC A Niger 1 (Aspergillus niger; YAG medium): 25 µg/mL; MIC A Terreus 4 (Aspergillus terreus; YAG medium): 6.25 µg/mL; MIC A Fum. 210 ([1]; YAG medium): 50 µg/mL; MIC A Flavus 01 (Aspergillus flavus; YAG medium): 12.5 µg/mL; MIC A Fum. 293 ([2]; YAG medium): >50 µg/mL; MIC A Terreus 49 (A Terreus 49; YAG medium): 6.25 µg/mL
"COc1ccc(NC(=O)C(=O)c2c(-c3ccccc3)cc3ccccn23)cc1C(C)=O [Example 282, N-(3-Acetyl-4-methoxy-phenyl)-2-oxo-2-(2-phenyl-indolizin-3-yl)-acetamide]",0.1,0.015,0.1,0.008,0.1,0.004,–
"CON=C(C)c1ccc(NC(=O)C(=O)c2c(-c3ccccc3)cc3ccccn23)cc1 (mixture of isomers) [Example 243, N-(4-{1-[(E/Z)-Methoxyimino]-ethyl}-phenyl)-2-oxo-2-(2-phenyl-indolizin-3-yl)-acetamide]",–,–,–,–,–,–,MIC A Niger 1 (Aspergillus niger; YAG medium): 0.015 µg/mL; MIC A Terreus 4 (Aspergillus terreus; YAG medium): 0.008 µg/mL; MIC A Fum. 210 ([1]; YAG medium): 0.12 µg/mL; MIC A Flavus 01 (Aspergillus flavus; YAG medium): 0.015 µg/mL; MIC A Fum. 293 ([2]; YAG medium): 0.062 µg/mL; MIC A Terreus 49 (A Terreus 49; YAG medium): 0.004 µg/mL
"O=C(Nc1ccc(F)cc1F)C(=O)c1c(-c2ccccc2Cl)cc2ccccn12 [Example 277, 2-[2-(2-Chloro-phenyl)-indolizin-3-yl]-N-(2,4-difluoro-phenyl)-2-oxo-acetamide]",0.03,0.015,0.05,0.03,0.4,0.2,–
"CCN(CC)C(=O)Oc1cccc(NC(=O)C(=O)c2c(-c3ccccc3)cc3ccccn23)c1 [Example 266, Diethyl-carbamic acid 3-[2-oxo-2-(2-phenyl-indolizin-3-yl)-acetylamino]-phenyl ester]",–,–,–,–,–,–,"MIC (Aspergillus niger; read-out: MIC A Niger 1): 6.25 µg/mL; MIC (Aspergillus terreus; read-out: MIC A Terreus 4): 0.2 µg/mL; MIC ([1]; AF210, read-out: MIC A Fum. 210): 1.6 µg/mL; MIC (Aspergillus flavus; read-out: MIC A Flavus 01): 0.2 µg/mL; MIC ([2]; AF293, read-out: MIC A Fum. 293): 0.8 µg/mL; MIC (A Terreus 49): 0.2 µg/mL"
"O=C(Nc1ccc(Cl)cc1Cl)C(=O)c1c(-c2ccccc2)cc2ccccn12 [Example 305, N-(2,4-Dichloro-phenyl)-2-oxo-2-(2-phenyl-indolizin-3-yl)-acetamide]",–,–,0.5,–,0.5,0.015,"MIC (Aspergillus niger; YAG medium, read-out: MIC A Niger): 0.015 µg/mL; MIC (Aspergillus terreus; YAG medium, read-out: MIC A Terreus): 0.031 µg/mL; MIC (Aspergillus flavus; YAG medium, read-out: MIC A Flavus): 0.062 µg/mL"
"CN1CCc2cc(NC(=O)C(=O)c3c(-c4ccccc4)cc4ccccn34)ccc21 [Example 261, N-(1-Methyl-2,3-dihydro-1H-indol-5-yl)-2-oxo-2-(2-phenyl-indolizin-3-yl)-acetamide]",0.06,0.004,0.03,0.004,0.03,0.001,–
"Cc1ccc(NC(=O)C(=O)c2c(-c3ccc(F)cc3)cc3ccccn23)cc1 [Example 156, 2-[2-(4-Fluoro-phenyl)-indolizin-3-yl]-2-oxo-N-p-tolyl-acetamide]",0.031,0.031,0.25,0.015,0.25,0.015,–
"N#Cc1ccc(NC(=O)C(=O)c2c(-c3ccccc3)cc3ccccn23)cc1 [Example 150, N-(4-Cyano-phenyl)-2-oxo-2-(2-phenyl-indolizin-3-yl)-acetamide]",0.25,0.5,1.6,0.125,1.6,0.12,–
"COc1ccc(NC(=O)C(=O)c2c(-c3cccs3)cc3ccccn23)c(OC)c1 [Example 166, N-(2,4-Dimethoxy-phenyl)-2-oxo-2-(2-thiophen-2-yl-indolizin-3-yl)-acetamide]",0.25,0.12,3.1,0.12,1.6,0.062,–
"COc1cccc(NC(=O)C(=O)c2c(-c3ccccc3)cc3ccccn23)c1 [Example 138, N-(3-Methoxy-phenyl)-2-oxo-2-(2-phenyl-indolizin-3-yl)-acetamide]",0.12,0.031,0.12,0.015,0.12,0.004,–
"Cc1noc(C)c1-c1ccc(NC(=O)C(=O)c2c(-c3ccccc3)cc3ccccn23)cc1 [Example 287, N-[4-(3,5-Dimethyl-isoxazol-4-yl)-phenyl]-2-oxo-2-(2-phenyl-indolizin-3-yl)-acetamide]",0.015,0.03,0.1,0.03,0.05,0.008,–
"O=C(Nc1ccc(F)cc1F)C(=O)c1c(-c2ccc(F)cc2F)cc2ccccn12 [Example 265, N-(2,4-Difluoro-phenyl)-2-[2-(2,4-difluoro-phenyl)-indolizin-3-yl]-2-oxo-acetamide]",0.008,0.015,> 50,0.1,> 50,0.06,–
"O=C(Nc1ccc(N2CCCC2)cc1)C(=O)c1c(-c2ccccc2)cc2ccccn12 [Example 260, 2-Oxo-2-(2-phenyl-indolizin-3-yl)-N-(4-pyrrolidin-1-yl-phenyl)-acetamide]",0.015,0.008,0.03,0.008,0.015,0.008,–
